One may read the IC50 as the concentration that gives 50% inhibition.

This experiment concerns the target T1, human NTS1R (Homo sapiens, UniProt P30989).
T1 construct: in membrane homogenates obtained from WiDr cells; endogenous in cells; host or cells: WiDr cells (membrane homogenates)
In words: Competitive binding against [125I]I-Tyr3-NT in WiDr cell membrane homogenates. Particulars: displacement of [125I]I-Tyr3-NT, WiDr cell membranes, mean ± sd, n = 3. The protocol: The affinity of metal-free D[…] and metal-tagged [^natGa]Ga/[^natIn]In/[^natLu]Lu-D[…] (Supplementary Materials) for the human NTS1R was evaluated via competitive binding assays. These assays were performed using the [^125I]I-Tyr^3-NT radioligand in membrane homogenates obtained from WiDr cells, which were stored at -80 °C in 100 μL aliquots of Tris/EDTA buffer (10 mM Tris, 0.1 mM EDTA, pH 7.4). On the day of the experiment, the membrane homogenates were thawed, combined, and diluted in ice-cold binding buffer (BB: 50 mM HEPES, 5.5 mM MgCl2, 0.1 mg/mL bacitracin, 1% w/v BSA, pH 7.4). Each of the above ligands (including NT as a control) was incubated in triplicate at increasing concentrations (ranging from 10^-13 M to 10^-6 M in BB, 30 μL) with [^125I]I-Tyr^3-NT (214 pM in 70 μL BB) and membrane homogenate (300 μL in BB) for 1 h at 22 °C in an Incubator-Orbital Shaker unit (MPM Instr. SrI, Bernareggio, Milan, Italy). […] The filters were washed with ice-cold washing buffer (WB, 10 mM HEPES pH 7.4, 150 mM NaCl), collected individually, placed in separate RIA tubes, and measured for their radioactivity content in a gamma counter (automated multi-sample well-type instrument with a NaI(Tl) 3'' crystal, Canberra Packard Cobra^TM Quantum U5003/1, Auto-Gamma® counting system; Canberra Packard Central Europe GmbH, Schwadorf, Austria). […]

Residues, ends and D or L forms follow the SMILES beside them. *: point of attachment. DOTA = O=C(O)CN1CCN(CC(=O)O)CCN(CC(=O)*)CCN(CC(=O)O)CC1; X1 = Cc1ccc(CCCC(=O)NCCOCCOCCOCCOCC(=O)*)cc1; βAla = NCCC(=O)O

T1 sequence (P30989 whole entry): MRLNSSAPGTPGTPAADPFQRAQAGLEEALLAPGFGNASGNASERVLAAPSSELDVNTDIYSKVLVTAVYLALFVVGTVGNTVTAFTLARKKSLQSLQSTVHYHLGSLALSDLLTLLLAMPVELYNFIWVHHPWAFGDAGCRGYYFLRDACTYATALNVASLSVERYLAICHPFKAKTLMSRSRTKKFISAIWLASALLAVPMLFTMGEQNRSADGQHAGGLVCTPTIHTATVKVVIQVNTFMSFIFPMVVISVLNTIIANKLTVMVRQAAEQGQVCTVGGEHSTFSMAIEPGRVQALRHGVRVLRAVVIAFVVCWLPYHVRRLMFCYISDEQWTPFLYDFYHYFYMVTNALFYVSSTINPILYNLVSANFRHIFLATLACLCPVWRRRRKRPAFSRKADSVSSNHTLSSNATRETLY

`CC[C@H](C)[C@H](NC(=O)[C@H](Cc1ccc(O)cc1)NC(=O)[C@@H]1CCCN1C(=O)[C@H](CCCNC(=N)N)NC(=O)[C@H](CCCNC(=N)N)NC(=O)[C@H](CCCCNC(=O)COCCOCCOCCOCCNC(=O)CCCc1ccc(C)cc1)NC(=O)CCNC(=O)CCNC(=O)CCNC(=O)CN1CCN(CC(=O)O)CCN(CC(=O)O)CCN(CC(=O)O)CC1)C(=O)N[C@@H](CC(C)C)C(=O)O` [DT14D, DOTA-βAla-βAla-βAla-Lys(MPBA-PEG4)^7-Arg-Arg-Pro-Tyr-Ile-Leu-OH] ({DOTA-βAla-βAla-βAla}-K(X1)RRPYIL-OH) came in with a concentration for half-maximal inhibition (IC50) of 2.56 ± 0.26 nM.

The values above are taken from article PMC11944670, “Reshaping [^99mTc]Tc-DT11 to DT14D Tagged with Trivalent Radiometals for NTS1R-Positive Cancer Theranostics” (Pharmaceutics, 2025).
